Reference: paper PMC11438102, “Modulation of cannabinoid receptor 2 alters neuroinflammation and reduces formation of alpha-synuclein aggregates in a rat model of nigral synucleinopathy” (Journal of Neuroinflammation, 2024)

Experiments:
[1] = test system: IBA1, CD68, CD163, MHCII in substantia nigra; assay: Immunohistochemistry/immunofluorescence of immune cell markers in substantia nigra; format: in vivo; conditions: rat low cohort, 6 mg/kg i.p. daily 7 weeks, vs vehicle
Method: Brains were post-fixed in 4%PFA for 48 h and transferred to 30% sucrose and cut at 40 μm on a freezing microtome. In brief, endogenous peroxidase was quenched with 3% hydrogen peroxide, blocked with 8% normal serum, avidin (Vector Cat#SP-2001) and 0.1% Triton-X and incubated overnight at 4°C with biotin (Vectorlabs Cat#SP-2001), normal serum and primary antibodies specific for Asyn (Clone 4B12; BioLegend Cat# 807801, RRID: AB_2564730), pSer129 Asyn (Clone EP1536Y; Abcam Cat# ab51253, RRID: AB_869973), CD68 (Bio-Rad Cat# MCA341R, RRID: AB_2291300), MHCII (Bio-Rad Cat# MCA46GA, RRID: AB_567369), and CD163 (Bio-Rad Cat# MCA342A, RRID: AB_2074557). Tissue was incubated in appropriate biotinylated secondary antibodies (1:200), amplified with Vectastain ABC kit (Vectorlabs Cat#PK-6100) and developed with diaminobenzidine tablets or diaminobenzidine drop kit with nickel (Vector Cat#SK-4100) for CD68 immunostaining.
Tissue was blocked with 5% normal serum in TBS + 0.25% Triton-X and further incubated overnight at 4°C with primary antibodies specific for IBA1 (FUJIFILM Wako Pure Chemical Corporation Cat# 019-19741, RRID: AB_839504) and tyrosine hydroxylase (ImmunoStar Cat# 22941, RRID: AB_572268) to identify microglia in the substantia nigra or tyrosine hydroxylase (Millipore Cat# AB152, RRID: AB_390204) and Asyn (Clone 4B12; BioLegend Cat# 807801, RRID: AB_2564730) to evaluate accuracy of stereotaxic injection targets. Tissue was incubated in secondary antibodies conjugated to appropriate fluorophores for 2 h at room temperature and mounted tissue with Vectashield, an aqueous mounting media with DAPI (Vectorlabs Cat#H-2000).
IBA1-positive total immune cell counts and area of immunoreactivity (ir) were quantified using Nikon NIS elements software. Four fluorescent z-stacks of IBA1 stained nigra were collected from images of lesioned and non-lesioned nigra from targeted low cohort animals using a Nikon Eclipse 90i microscope and maximum project images were used for quantification. CD68-ir and CD163-ir was quantified from two to three microphotographs from each animal throughout the substantia nigra using ImageJ particle count analysis. Microphotographs of the nigra immunochemically stained for either Asyn, pSer129 Asyn and proteinase K-resistant Asyn were quantified using Image J (version 1.54f). Regions of Interest (ROIs) were drawn on two to three images throughout the nigra and optical density measurements collected and averaged for each animal. Measurements were normalized to the vehicle group so that data from all cohorts could be combined.

[2] = test system: pSer129 and total human Asyn in striatum; assay: Western immunoblot of pSer129 and total human Asyn in striatal lysates; format: in vivo; conditions: rat low cohort, striatum ipsilateral to AAV, 6 mg/kg i.p. daily 7 weeks, vs vehicle
Method: Sprague Dawley male rats (16–18 weeks of age, 400–525 g) were purchased from Charles River Laboratories and acclimated to Emory University animal facilities. Rats were pair housed in standard plexiglass cages under normal 12-hr light cycles and handled in accordance with protocols approved by the IACUC of Emory University in Atlanta, GA. Rats were administered unilateral injections of AAV2/5-human wild-type (WT) Asyn at titers of 2.9–4.3 × 10^11 vector genomes (vg)/mL (termed “low cohort”), which was previously shown to not induce nigral neurotoxicity. Thereby, generating a model with overexpression of human WT Asyn and Asyn-mediated neuroinflammation. […]
Striatal tissue from successfully targeted low cohort rats was homogenized in ice-cold TriZOL lysed using the TissueLyser system. […] Total protein concentrations were measured using Pierce BCA Protein Assay Kit and equal amount of protein (10–20 µg) mixed with Laemmli sample buffer were loaded in 4–20% TGX precast gels (Biorad) for gel electrophoresis. […] Revert staining was captured and measured on the Licor Odyssey at 700 nm for 30 s.
Non-specific protein binding was blocked with 5% milk and 0.1% Tween-20 in TBS for 1 h at room temperature, and membranes incubated with primary antibodies overnight at 4°C. […] The density of the band was quantified using StudioLite software. […]

With `O=C(c1ccccc1)c1cc(O)c(-c2cc(Cl)cc(Cl)c2)c(O)c1` [SMM-189] the “IBA1 counts and area in nigra, effect of treatment” value [1] was “not a significant effect of treatment”, the “intensity or area coverage of MHCII in the lesioned nigra” value [1] was “No differences” and the “nigral CD68-ir particle counts” value ([1]; AAV-injected nigra) was “increased”. For the same compound, the “CD163 in the nigra” value ([1]; lesioned nigra) was “decreased”, the “pS129 levels in striatum, western” value [2] was “reduced” and the “total human Asyn levels in striatum, western” value [2] was “no differences”.
